ChEMBL document CHEMBL2390827, “Ligand-based design, synthesis, and experimental evaluation of novel benzofuroxan derivatives as anti-Trypanosoma cruzi agents” (Eur J Med Chem, 2013)
pIC50: −log10 of the molar value. Blank lines part the entries; values can stand above or below the molecule they belong to. Activity calls are given as the source filed them. The rule behind the calls is not given here.

Columns and labels:
[1] = Cytotoxicity against human fibroblasts assessed as growth inhibition after 24 hrs by MTT assay; assay type: cell-based; conditions: Fibroblast
[2] = Selectivity index, ratio of IC50 for human fibroblasts to GI50 for epimastigote stage of Trypanosoma cruzi Y
Trypanosoma cruzi = assay: Antitrypanosomal activity against epimastigote stage of Trypanosoma cruzi Y assessed as parasite growth inhibition after 5 days by spectrophotometric analysis; assay type: functional

SMILES: O=C(N/N=C/c1ccc2c(c1)no[n+]2[O-])c1ccc(F)cc1
- log1/GI50 (Trypanosoma cruzi): 4.82
- GI50 (Trypanosoma cruzi; Trypanosoma cruzi, Y, 120 h): 15.3 µM

SMILES: CC(=O)c1ccc(C(=O)N/N=C/c2ccc3c(c2)no[n+]3[O-])cc1
- log1/GI50 (Trypanosoma cruzi): 4.8
- GI50 (Trypanosoma cruzi; Trypanosoma cruzi, Y, 120 h): 16 µM

SMILES: O=C(N/N=C/c1ccc2c(c1)no[n+]2[O-])c1ccc([N+](=O)[O-])cc1
- log1/GI50 (Trypanosoma cruzi): 4.75
- GI50 (Trypanosoma cruzi; Trypanosoma cruzi, Y, 120 h): 17.8 µM

SMILES: N#Cc1ccc(C(=O)N/N=C/c2ccc3c(c2)no[n+]3[O-])cc1
- log1/GI50 (Trypanosoma cruzi): 4.58
- GI50 (Trypanosoma cruzi; Trypanosoma cruzi, Y, 120 h): 26.6 µM

SMILES: O=C(N/N=C/c1ccc2c(c1)no[n+]2[O-])c1ccc(O)cc1
- GI50 (Trypanosoma cruzi): inactive

SMILES: O=C(Cn1ccnc1[N+](=O)[O-])NCc1ccccc1 [BENZNIDAZOLE]
- pIC50 [1]: < 3.70
- Selectivity Index [2]: >9.6
- log1/GI50 (Trypanosoma cruzi): 4.68
- GI50 (Trypanosoma cruzi; Trypanosoma cruzi, Y, 120 h): 22.7 µM

SMILES: NS(=O)(=O)c1ccc(C(=O)N/N=C/c2ccc3c(c2)no[n+]3[O-])cc1
- pIC50 [1]: 4.22
- Selectivity Index [2]: 0.99
- log1/GI50 (Trypanosoma cruzi): 4.22
- GI50 (Trypanosoma cruzi; Trypanosoma cruzi, Y, 120 h): 60.4 µM

SMILES: O=C(N/N=C/c1ccc([N+](=O)[O-])o1)c1ccc(O)cc1 [NIFUROXAZIDE]
- pIC50 [1]: 4.11
- Selectivity Index [2]: 0.64
- log1/GI50 (Trypanosoma cruzi): 3.92
- GI50 (Trypanosoma cruzi; Trypanosoma cruzi, Y, 120 h): 120 µM

SMILES: O=C(N/N=C/c1ccc2c(c1)no[n+]2[O-])c1ccccc1
- log1/GI50 (Trypanosoma cruzi): 4.77
- GI50 (Trypanosoma cruzi; Trypanosoma cruzi, Y, 120 h): 16.9 µM

SMILES: O=C(N/N=C/c1ccc2c(c1)no[n+]2[O-])c1ccc([N+](=O)[O-])c(C(F)(F)F)c1
- log1/GI50 (Trypanosoma cruzi): 4.8
- GI50 (Trypanosoma cruzi; Trypanosoma cruzi, Y, 120 h): 15.9 µM

SMILES: Nc1ccc(C(=O)N/N=C/c2ccc3c(c2)no[n+]3[O-])cc1
- pIC50 [1]: < 3.70
- Selectivity Index [2]: 1.71
- log1/GI50 (Trypanosoma cruzi): 3.93
- GI50 (Trypanosoma cruzi; Trypanosoma cruzi, Y, 120 h): 117 µM

SMILES: CN(C)c1ccc(C(=O)N/N=C/c2ccc3c(c2)no[n+]3[O-])cc1
- GI50 (Trypanosoma cruzi): inactive

Second part, led by results:

- log1/GI50 (Trypanosoma cruzi): 5.24
- GI50 (Trypanosoma cruzi; Trypanosoma cruzi, Y, 120 h): 5.78 µM
SMILES: CCCCOc1ccc(C(=O)N/N=C/c2ccc3c(c2)no[n+]3[O-])cc1
- pIC50 [1]: < 3.70
- Selectivity Index [2]: >34.6

- log1/GI50 (Trypanosoma cruzi): 5.21
- GI50 (Trypanosoma cruzi; Trypanosoma cruzi, Y, 120 h): 6.11 µM
SMILES: O=C(N/N=C/c1ccc2c(c1)no[n+]2[O-])c1ccc(I)cc1
- pIC50 [1]: < 3.70
- Selectivity Index [2]: >32.73

- log1/GI50 (Trypanosoma cruzi): 5.02
- GI50 (Trypanosoma cruzi; Trypanosoma cruzi, Y, 120 h): 9.54 µM
SMILES: O=C(N/N=C/c1ccc2c(c1)no[n+]2[O-])c1ccc(Cl)cc1Cl
- pIC50 [1]: 4.42
- Selectivity Index [2]: 4.01

- log1/GI50 (Trypanosoma cruzi): 5.42
- GI50 (Trypanosoma cruzi; Trypanosoma cruzi, Y, 120 h): 3.78 µM
SMILES: CC1CS(=O)(=O)CCN1/N=C/c1ccc([N+](=O)[O-])o1 (stereo unspecified) [NIFURTIMOX]
- pIC50 [1]: < 3.70
- Selectivity Index [2]: >52.91

- log1/GI50 (Trypanosoma cruzi): 5.43
- GI50 (Trypanosoma cruzi; Trypanosoma cruzi, Y, 120 h): 3.72 µM
SMILES: CCCCc1ccc(C(=O)N/N=C/c2ccc3c(c2)no[n+]3[O-])cc1
- pIC50 [1]: < 3.70
- Selectivity Index [2]: >53.76

- log1/GI50 (Trypanosoma cruzi): 5.39
- GI50 (Trypanosoma cruzi; Trypanosoma cruzi, Y, 120 h): 4.07 µM
SMILES: CCCOc1ccc(C(=O)N/N=C/c2ccc3c(c2)no[n+]3[O-])cc1
- pIC50 [1]: < 3.70
- Selectivity Index [2]: >49.14

- log1/GI50 (Trypanosoma cruzi): 5.15
- GI50 (Trypanosoma cruzi; Trypanosoma cruzi, Y, 120 h): 7.12 µM
SMILES: CC(C)c1ccc(C(=O)N/N=C/c2ccc3c(c2)no[n+]3[O-])cc1
- pIC50 [1]: < 3.70
- Selectivity Index [2]: >28.09

- log1/GI50 (Trypanosoma cruzi): 5.04
- GI50 (Trypanosoma cruzi; Trypanosoma cruzi, Y, 120 h): 9.07 µM
SMILES: O=C(N/N=C/c1ccc2c(c1)no[n+]2[O-])c1ccc(Cl)c(Cl)c1
- pIC50 [1]: 4.19
- Selectivity Index [2]: 7.17

- log1/GI50 (Trypanosoma cruzi): 5.02
- GI50 (Trypanosoma cruzi; Trypanosoma cruzi, Y, 120 h): 9.62 µM
SMILES: O=C(N/N=C/c1ccc2c(c1)no[n+]2[O-])c1ccc(C(F)(F)F)cc1

- log1/GI50 (Trypanosoma cruzi): 5.11
- GI50 (Trypanosoma cruzi; Trypanosoma cruzi, Y, 120 h): 7.78 µM
SMILES: O=C(N/N=C/c1ccc2c(c1)no[n+]2[O-])c1ccc(Br)cc1
- pIC50 [1]: < 3.70
- Selectivity Index [2]: >25.71

- log1/GI50 (Trypanosoma cruzi): 4.88
- GI50 (Trypanosoma cruzi; Trypanosoma cruzi, Y, 120 h): 13.2 µM
SMILES: COc1ccc(C(=O)N/N=C/c2ccc3c(c2)no[n+]3[O-])cc1

- log1/GI50 (Trypanosoma cruzi): 5.52
- GI50 (Trypanosoma cruzi; Trypanosoma cruzi, Y, 120 h): 3.04 µM
SMILES: CCCc1ccc(C(=O)N/N=C/c2ccc3c(c2)no[n+]3[O-])cc1
- pIC50 [1]: < 3.70
- Selectivity Index [2]: >65.79

- log1/GI50 (Trypanosoma cruzi): 5
- GI50 (Trypanosoma cruzi; Trypanosoma cruzi, Y, 120 h): 9.96 µM
SMILES: O=C(N/N=C/c1ccc2c(c1)no[n+]2[O-])c1ccc(Cl)cc1

- log1/GI50 (Trypanosoma cruzi): 5.02
- GI50 (Trypanosoma cruzi; Trypanosoma cruzi, Y, 120 h): 9.62 µM
SMILES: CCOc1ccc(C(=O)N/N=C/c2ccc3c(c2)no[n+]3[O-])cc1

- log1/GI50 (Trypanosoma cruzi): 4.93
- GI50 (Trypanosoma cruzi; Trypanosoma cruzi, Y, 120 h): 11.9 µM
SMILES: Cc1ccc(C(=O)N/N=C/c2ccc3c(c2)no[n+]3[O-])cc1

- log1/GI50 (Trypanosoma cruzi): 5
- GI50 (Trypanosoma cruzi; Trypanosoma cruzi, Y, 120 h): 9.91 µM
SMILES: CCc1ccc(C(=O)N/N=C/c2ccc3c(c2)no[n+]3[O-])cc1

- log1/GI50 (Trypanosoma cruzi): 5.24
- GI50 (Trypanosoma cruzi; Trypanosoma cruzi, Y, 120 h): 5.45 µM
SMILES: CC(C)(C)c1ccc(C(=O)N/N=C/c2ccc3c(c2)no[n+]3[O-])cc1
- pIC50 [1]: < 3.70
- Selectivity Index [2]: >36.7
